From patent US20090111836A1, “Angular Pyranocoumarins, Process for Preparation and Uses Thereof” (CITY UNIVERSITY OF HONG KONG, priority 2007, published 2009)
Entries after “also recorded” stand apart in the source; their conditions may differ.

Columns and labels:
[1] = tested on: KB V1 cells; test: SRB growth inhibition assay, KB V1; type: cell-based, human; details: IC50 KB V1 / IC50 KB-3-1
[2] = tested on: HepG2-DR cells; test: Reversal of multidrug resistance (fold decrease of anticancer drug IC50), HepG2-DR; type: cell-based, human
Protocol: (§1) Cells and cell culture: cell lines used in the experiments are human hepatoma cell line (HepG2), human leukemia cell line (K562), human epidermoid carcinoma cell line (KB-3-1) and their multidrug resistant sublines HepG2-DR, K562-DR. and KB V1. The culture conditions for all cells are following: at 37° C. and 5% CO2), KB-3-1 and KBV1 were cultured in MEM medium containing 10% fetal bovine serum and 100 U/mL antibiotics; K562, K562-DR, HepG2, HepG2-DR were cultured in RPMI-1640 medium containing 10% fetal bovine serum and 100 U/mL, antibiotics. For maintaining the phenotypic characteristics of multidrug resistance, 1.2 μM and 0.1 μM doxorubicin were respectively added into the mediums of HepG2-DR and K562-DR; 200 ng/mL vinblastine was added into the medium of KBV1. Drug resistant cells were grown in drug free medium for at least 7 days before test.
(§2) Each growth inhibition experiment must be repeated three times and results are expressed as mean±standard deviation (SD). Solvents and media were included as blank control.
(§3) In SRB assay, cells are inoculated at 5000 cells/well in a 96-well microplate and incubated overnight to let cells adhere. Drug treatment lasts for 72 hours and cells are fixed for 1 hour at 4° C. with 50 μl ice-cold 15% trichloroacetic acid and washed with triple-distilled water 5 times. Cellular protein is stained by adding 50 μl of 0.4% SRB in 1% acetic acid for 10 minutes, rinsed with 1% acetic acid 5 times and air-dried. The protein-bound dye is dissolved in 100 μl per well of 10 mM Tris base (pH 10.5). The color intensity of SRB, which positively correlate to cell number in preliminary experiments, is estimated at OD 515 nm.
(§4) 1. Materials and methods: the same with I.
(§5) To evaluate the multidrug resistance reversing ability of (±)-Praeruptorin A derivatives, IC50 values of anticancer drugs in the presence and absence of cis-DMDCK, cis-DMDBK, trans-DMDCK, or trans-DMDBK at certain concentration were determined in HepG2-DR, K562-DR and KB V1 cells. The fold decrease of IC50 value of an anticancer drug in certain cell line achieved by a test compound is calculated (fold decrease=IC50 of an anti-tumor drug alone/IC50 of the anti-tumor drug in combination with the test compound) and is used for evaluating the ability of the test compound to reduce drug resistance. The larger the fold decrease value is, the stronger its ability to reverse drug resistance is. The results were average values of three repetitive tests. Verapamil (P-glycoprotein modulator) is the positive control.

[3] = tested on: K562-DR cells; test: Reversal of multidrug resistance (fold decrease of anticancer drug IC50), K562-DR; type: cell-based, human; details: 4 μM test compound
Protocol: as §1, §2
In MTT assay, cells are inoculated at 5000 cells/well and are incubated overnight. Drug treatment lasts for 68 h. MTT (5 mg/ml in PBS) is added to each well (1:10 dilution). After incubation for 4 hour at 37° C., 5% CO2, 100 μl of stop solution (10% SDS-50% isobutanol-0.01N HCl) is added to each well to stop the reaction. Viable cell number is estimated by correlating to OD at 570 nm.
as §4, §5

[4] = tested on: KB V1 cells; test: Reversal of multidrug resistance (fold decrease of anticancer drug IC50), KB V1; type: cell-based, human; details: KB V1, 4 μM test compound
Protocol: as §1, §2, §3, §4, §5

[5] = tested on: P-gp; test: Immunoblotting analysis of P-gp expression, HepG2-DR; type: cell-based, human; details: 4 μM, 72 hours
Protocol: (§6) Immunoblotting analysis of P-gp expression: cells were treated with 4 μM of cis-DMDCK, 4 μM of cis-DMDBK, 4 μM of trans-DMDCK, or 4 μM of trans-DMDBK for 72 hours. Treated cells were collected and mixed well in ice-cold lysis buffer (50 mM Tris pH7.4, 100 mM NaCl, 2 mM EDTA, 1% sodium deoxycholate, 0.1% SDS, 1% triton X-100, 2 mM PMSF, 1% aprotinin) for 30 minutes and then centrifuged to get the total protein. Protein concentration was determined using Bradford assay. In this experiment, 50 μg total protein was separated by 8% SDS-PAGE and electro-transferred to nitrocellulose membranes. The membrane was blocked by 5% skim milk/0.1% Tween-20/TBS (10 mM Tris pH7.5, 100 mM NaCl), and then incubated with anti-P-pg antibody for 1 hour, followed by horseradish-peroxidase-conjugated secondary antibody for another 1 hour. Protein bands were detected by the ECL method.

[6] = tested on: P-gp; test: Immunoblotting analysis of P-gp expression, KB V1; type: cell-based, human; details: KB V1, 4 μM, 72 hours
Protocol: as §6

[7] = tested on: P-gp; test: Immunoblotting analysis of P-gp expression, K562-DR; type: cell-based, human; details: 4 μM, 72 hours
Protocol: as §6

[8] = molecular target: P-gp (Homo sapiens, UniProt P08183); test: Hoechst 33342 efflux assay, HepG2-DR; type: cell-based; set-up: KB V1, HepG2-DR and K562-DR cell expressed P-gp at high level when compared with parental drug sensitive cells thereof; endogenous in cells; host or cells: HepG2-DR (doxorubicin-maintained multidrug resistant subline of HepG2); details: 20 μM
Protocol: Relative amount of intracellular H33342 (%)=100×(FS−F0)/F0
(Fs: cellular fluorescence intensity of H33342 in the presence of a testing drug; F0: cellular fluorescence intensity of H33342 in the absence of any P-gp modulator).
1.4 Hoechst 33342 transport test: HepG2-DR Cells (5×10^4 cells in 100 μL, medium per well) were seeded in 96-well plate and incubated overnight to permit cell attachment. The medium was replaced with fresh medium containing 20 μg/mL Hoechst 33342 and cells were incubated at 37° C. for 1 hour. Cells were then washed with 100 μL ice-cold PBS twice. New medium containing the test compound of various concentrations was added and cells were further incubated at 37° C. for 1 hour. Cells were washed with ice-cold PBS twice and cellular fluorescence intensity was measured at λex=365 nm (λem=460 nm) by a BMG FLUOstar OPTIMA Microplate Reader. Inhibitory effect of the test compound on Hoechst 33342 efflux was expressed as the percentage increase of retained Hoechst 33342 in cells.

P-gp (Homo sapiens, UniProt P08183), sequence (P08183 whole entry): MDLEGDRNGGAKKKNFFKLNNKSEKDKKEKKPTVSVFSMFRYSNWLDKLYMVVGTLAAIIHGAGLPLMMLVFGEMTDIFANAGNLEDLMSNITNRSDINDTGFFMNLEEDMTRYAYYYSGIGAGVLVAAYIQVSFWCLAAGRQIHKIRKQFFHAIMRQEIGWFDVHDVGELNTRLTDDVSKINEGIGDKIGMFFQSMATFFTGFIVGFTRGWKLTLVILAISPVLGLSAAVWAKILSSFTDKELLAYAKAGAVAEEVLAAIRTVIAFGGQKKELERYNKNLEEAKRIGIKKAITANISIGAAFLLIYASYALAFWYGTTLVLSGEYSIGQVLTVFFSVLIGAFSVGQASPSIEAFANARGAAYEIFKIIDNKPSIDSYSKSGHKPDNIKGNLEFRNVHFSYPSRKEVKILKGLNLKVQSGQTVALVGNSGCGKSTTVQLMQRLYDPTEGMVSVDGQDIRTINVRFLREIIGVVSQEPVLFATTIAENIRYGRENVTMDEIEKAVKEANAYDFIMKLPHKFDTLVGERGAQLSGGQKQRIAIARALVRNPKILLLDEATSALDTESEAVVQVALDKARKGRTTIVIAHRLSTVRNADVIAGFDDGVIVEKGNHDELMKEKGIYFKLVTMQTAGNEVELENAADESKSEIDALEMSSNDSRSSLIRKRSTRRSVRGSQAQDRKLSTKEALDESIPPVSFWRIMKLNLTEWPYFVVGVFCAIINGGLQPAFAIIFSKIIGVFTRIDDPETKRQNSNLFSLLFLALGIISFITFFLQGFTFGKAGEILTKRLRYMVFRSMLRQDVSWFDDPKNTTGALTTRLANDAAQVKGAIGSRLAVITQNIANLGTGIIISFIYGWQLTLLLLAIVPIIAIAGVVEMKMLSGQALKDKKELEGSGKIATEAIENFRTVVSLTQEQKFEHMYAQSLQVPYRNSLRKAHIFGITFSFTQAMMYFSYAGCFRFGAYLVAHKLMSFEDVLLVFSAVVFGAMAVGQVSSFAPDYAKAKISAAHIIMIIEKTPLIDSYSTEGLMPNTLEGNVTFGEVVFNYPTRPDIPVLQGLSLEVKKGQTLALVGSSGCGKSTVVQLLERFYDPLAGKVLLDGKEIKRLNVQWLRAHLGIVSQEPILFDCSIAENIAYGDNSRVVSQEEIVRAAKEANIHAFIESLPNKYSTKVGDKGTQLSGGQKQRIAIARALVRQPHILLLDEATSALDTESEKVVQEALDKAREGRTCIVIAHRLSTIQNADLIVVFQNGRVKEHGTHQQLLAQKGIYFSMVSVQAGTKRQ

Reversing parameter: fold decrease of IC50 of Doxorubicin ([2]; 2 μM test compound): 3.8 ± 1.6 fold
Reversing parameter: fold decrease of IC50 of Puromycin ([2]; 2 μM test compound): 4.6 ± 1.4 fold
Reversing parameter: fold decrease of IC50 of Vinblastine ([2]; 2 μM test compound): 1.5 ± 0.3 fold
Reversing parameter: fold decrease of IC50 of Doxorubicin ([2]; 4 μM test compound): 58.2 ± 17.2 fold
Reversing parameter: fold decrease of IC50 of Puromycin ([2]; 4 μM test compound): 28.5 ± 0.2 fold
Reversing parameter: fold decrease of IC50 of Vinblastine ([2]; 4 μM test compound): 19.3 ± 10.4 fold
Reversing parameter: fold decrease of IC50, verapamil [3]: 9.8 ± 2.1 fold
Reversing parameter: fold decrease of IC50 of Doxorubicin [3]: 7.0 ± 2.2 fold
Reversing parameter: fold decrease of IC50 of Puromycin [3]: 6.7 ± 0.4 fold
Reversing parameter: fold decrease of IC50 of Vinblastine [3]: 11.0 ± 0.6 fold
Reversing parameter: fold decrease of IC50, verapamil [4]: 2.2 ± 0.4 fold
Reversing parameter: fold decrease of IC50 of Doxorubicin [4]: 2.7 ± 0.9 fold
Reversing parameter: fold decrease of IC50 of Puromycin [4]: 8.4 ± 4.2 fold
Reversing parameter: fold decrease of IC50 of Vinblastine [4]: 1.4 ± 0.2 fold
Highest increase of cellular Hoechst 33342 fluorescence [8]: about 150%
SMILES: COc1ccc(C(=O)O[C@@H]2[C@@H](OC(=O)c3ccc(OC)c(OC)c3)c3c(ccc4ccc(=O)oc34)OC2(C)C)cc1OC (racemic) [trans-DMDBK, (±)-3′-O,4′-O-bis(3,4-dimethoxybenzoyl)-trans-khellactone]
Resistant ratio [1]: 0.53
Change in P-gp (MDR1) expression level [5]: no detectable alteration; also recorded: not observed
Change in P-gp (MDR1) expression level [6]: no detectable alteration; also recorded: not observed
Change in P-gp (MDR1) expression level [7]: no detectable alteration; also recorded: not observed
